Test results as given in ChEMBL document CHEMBL1149946, “The conformation of cyclosporin a bound to cyclophilin is altered (once again) following binding to calcineurin: an analysis of receptor-ligand-receptor interactions” (Bioorg Med Chem Lett, 1992).

Assay: Compound was evaluated for its binding affinity towards cyclophilin (Cyp)

| Compound | Kd |
| --- | --- |
| C/C=C/CC(C)(C)[C@@H](O)[C@H]1C(=O)N[C@@H](CC)C(=O)N(C)CC(=O)N(C)[C@@H](CC(C)C)C(=O)N[C@@H](C(C)C)C(=O)N(C)[C@@H](CC(C)C)C(=O)N[C@@H](C)C(=O)N[C@@H](C)C(=O)N(C)[C@@H](CC(C)C)C(=O)N(C)[C@@H](CC(C)C)C(=O)N(C)[C@@H](C(C)C)C(=O)N1C | 0.5 µM |
| C/C=C/C[C@@H](C)[C@H](O)[C@H]1C(=O)N[C@@H](CC)C(=O)N(C)CC(=O)N(C)[C@@H](CC(C)C)C(=O)N[C@H](C(C)C)C(=O)N(C)CC(=O)N[C@@H](C)C(=O)N[C@H](C)C(=O)N(C)[C@H](CC(C)C)C(=O)N(C)[C@H](CC(C)C)C(=O)N(C)[C@H](C(C)C)C(=O)N1C | 0.013 µM |
